This series relates to human maximum recommended daily dose, FDA database. As to the kind of experiment: DSSTox (FDAMDD) FDA Maximum (Recommended) Daily Dose Database. The following applies: stronger effect = lower value. The text has this: The Food and Drug Administration (FDA) Center for Drug Evaluation and Research, Office of Pharmaceutical Science, Informatics and Computational Safety Analysis Staff's Maximum Recommended Daily Dose (FDAMDD) database contains values for over 1200 pharmaceuticals listed in Martindale: The Extra Pharmacopoeia (1973, 1983, and 1993) and The Physicians' Desk Reference (1995 and 1999). Some classes of chemicals were excluded from the FDAMDD database due to their unsuitability for most QSAR modeling programs. These were inorganic chemicals, high molecular weight polymers (>5000 Daltons), fibers, salts, mixtures of organic chemicals, and small molecules (<100 Daltons). FDAMDD is the non-proprietary portion of the database that was used in the QSAR analysis reported in the Main Citation. DSSTox FDAMDD has fewer substance records than the original MRDD Source database due to consolidation of partial structures (i.e., complexed entities) into a single record and elimination of duplicate entries. DSSTox FDAMDD also differs from the MRDD Source database in presenting complete structural information pertaining to the actual salt or complexed form corresponding to the listed ChemicalName and CASRN. According to the Source authors, there are a number of cases where multiple related forms or derivatives of a drug were listed as separate records but were assumed to fall under the same clinical toxicity assessment and, therefore, assigned the same Dose_MRDD_mg activity value. For the DSSTox FDAMDD, we have labeled these derivatives in the ChemClass_MRDD_grouping field and provide their counts in the ChemicalReplicateCount field to highlight their special nature.
Maximum recommended daily dose (or maximum recommended therapeutic dose) values were determined from pharmaceutical clinical trials that employed an oral route of exposure and daily treatments, usually for 3-12 months. Drugs were given as single or divided dose treatment regimens to achieve desired pharmacological effects. Roughly 5% of the pharmaceuticals in the FDAMDD data file were antineoplastics and anesthetics and were administered intravenously and/or intramuscularly. When separate MRDDs were reported for different routes of exposure, only the oral MRDD was included in the data file and only MRDD values reported for the average adult patient were used. Pharmaceuticals that are administered orally are usually tested over a limited range of doses and have MRDDs reported as mg/day. The mg/day unit was converted to mg/kg-body weight (bw)/day based upon an average adult weighing 60 kg. In contrast, the dose unit for most antineoplastic drug MRDDs is reported as mg/m2 which was converted to mg/kg-bw/day using the formula mg/kg-bw/day = mg/m2/37 for an average adult. Additionally, a few drugs had MRDDs reported in parts per million (ppm) which were converted to mg/kg-bw/day on the basis that 1000 ppm equals 25 mg/kg-bw/day for an average 60 kg adult. Activity Score is mapping of LOG10(1/Dose_MRDD_mmol) spanning activity range [MIN, MAX] onto Integer 1-100 Activity range, where 100 is highest potency and 1 is lowest potency: ActivityScore = 100 * INTEGER[(LOGINV_MRDD_mmol - MIN)/(MAX […] MIN)]. Activity Outcome is "active" for all substances, since Dose_MRDD_mmol is reported for all substances.

Where [1] appears, read: TherapeuticCategory: narcotic analgesic.
Setting [2] is: TherapeuticCategory: antibacterial.
Where [3] appears, read: TherapeuticCategory: antidepressant.
[4] abbreviates: TherapeuticCategory: diagnostic aid.
Setting [5] is: TherapeuticCategory: antipsychotic.
The mark [6] stands for this setting: TherapeuticCategory: antineoplastic.
The mark [7] stands for this setting: TherapeuticCategory: anticoagulant.
The mark [8] stands for this setting: TherapeuticCategory: antihypertensive.

This passage reports maximum recommended daily dose (mmol/kg-bw/day) results from PubChem BioAssay AID1195 (EPA DSSTox, 2008).

On to `CCC(=O)O[C@]1(c2ccccc2)CCN(C)C[C@@H]1C`, for which the maximum recommended daily dose (mmol/kg-bw/day) under setting [1] is 0.00191.

As to `C[C@H]1O[C@@H](O[C@H]2CC[C@@]3(C)[C@H](CC[C@@H]4[C@@H]3C[C@@H](O)[C@]3(C)[C@@H](C5=CC(=O)OC5)CC[C@]43O)C2)C[C@H](O)[C@@H]1O[C@H]1C[C@H](O)[C@H](O[C@H]2C[C@H](O)[C@H](O[C@@H]3O[C@H](CO)[C@@H](O)[C@H](O)[C@H]3O)[C@@H](C)O2)[C@@H](C)O1`, the maximum recommended daily dose (mmol/kg-bw/day) (TherapeuticCategory: cardiotonic) was 8.48e-08.

As to `Cc1cc(C)nc(NS(=O)(=O)c2ccc(N)cc2)n1`, the maximum recommended daily dose (mmol/kg-bw/day) under setting [2] is 0.18.

Regarding `N[C@@H]1C[C@H]1c1ccccc1`, the maximum recommended daily dose (mmol/kg-bw/day) under setting [3] is 0.00751.

In the case of `OC[C@H]1OC(O)[C@H](O)[C@@H](O)[C@@H]1O` (stereo partly drawn), for the setting “TherapeuticCategory: fluid and nutrient replenisher”, the maximum recommended daily dose (mmol/kg-bw/day) was 0.555.

Regarding `CCC(=O)O[C@@](Cc1ccccc1)(c1ccccc1)[C@@H](C)CN(C)C`, for the setting “TherapeuticCategory: antitussive”, the maximum recommended daily dose (mmol/kg-bw/day) is 0.00492.

Regarding `CCCCC(=O)OCC(=O)[C@@]1(O)[C@H](C)C[C@H]2[C@@H]3CCC4=CC(=O)C=C[C@]4(C)[C@@]3(F)[C@@H](O)C[C@@]21C`, the maximum recommended daily dose (mmol/kg-bw/day) (TherapeuticCategory: glucocorticoid, anti inflammatory) was 0.000315.

In the case of `O=C(O)c1cn(C2CC2)c2cc(N3CCNCC3)c(F)cc2c1=O`, under setting [2], the maximum recommended daily dose (mmol/kg-bw/day) is 0.0401.

As to `NCCc1ccn[nH]1`, under setting [4], the maximum recommended daily dose (mmol/kg-bw/day) is 0.0045.

Consider `CCCCCCCCCC(=O)O[C@H]1CC[C@H]2[C@@H]3CCC4=CC(=O)CC[C@@H]4[C@H]3CC[C@]12C`, for which the maximum recommended daily dose (mmol/kg-bw/day) (TherapeuticCategory: anabolic) was 0.00777.

As to `COCC1=C(C(=O)O)N2C(=O)[C@@H](NC(=O)/C(=N\OC)c3csc(N)n3)[C@H]2SC1`, under setting [2], the maximum recommended daily dose (mmol/kg-bw/day) was 0.0234.

For the compound `CC(=O)NCc1c(I)c(NC(C)=O)c(I)c(C(=O)O)c1I`, the maximum recommended daily dose (mmol/kg-bw/day) under setting [4] is 0.159.

In the case of `CCC1C(=O)OCC1Cc1cncn1C` (stereo not drawn), the maximum recommended daily dose (mmol/kg-bw/day) (TherapeuticCategory: antiglaucoma, miotic) is 0.0024.

In the case of `CO[C@@]1(NC(=O)C(C(=O)O)c2ccc(O)cc2)C(=O)N2C(C(=O)O)=C(CSc3nnnn3C)CO[C@@H]21` (stereo partly drawn), under setting [2], the maximum recommended daily dose (mmol/kg-bw/day) is 0.128.

On to `Cc1cccc(C)c1NC(=O)C1CCCCN1C` (stereo not drawn), for which the maximum recommended daily dose (mmol/kg-bw/day) (TherapeuticCategory: local anesthetic) was 0.0271.

Regarding `O=C1CN2CCOC2(c2ccccc2F)c2cc(Cl)ccc2N1CCO` (stereo not drawn), the maximum recommended daily dose (mmol/kg-bw/day) (TherapeuticCategory: anxiolytic) is 0.000531.

`CN(C)CCO`: the maximum recommended daily dose (mmol/kg-bw/day) under setting [3] was 0.168.

Regarding `CN[C@@H](C)[C@@H](O)c1ccccc1`, the maximum recommended daily dose (mmol/kg-bw/day) (TherapeuticCategory: l-form as bronchodilator, d-form as decongestant) is 0.0242.

Take `COC(=O)C(c1ccccc1)C1CCCCN1` (stereo not drawn): the maximum recommended daily dose (mmol/kg-bw/day) (TherapeuticCategory: CNS stimulant) was 0.00429.

In the case of `CN(C)CCOC1=Cc2ccccc2Sc2ccc(Cl)cc21`, the maximum recommended daily dose (mmol/kg-bw/day) under setting [5] is 0.0226.

Turning to `CNNCc1ccc(C(=O)NC(C)C)cc1`, the maximum recommended daily dose (mmol/kg-bw/day) under setting [6] is 0.0271.

For `CNS(=O)(=O)Cc1ccc2[nH]cc(CCN(C)C)c2c1`, the maximum recommended daily dose (mmol/kg-bw/day) (TherapeuticCategory: antimigraine) is 0.000677.

In the case of `C[C@]12CC[C@H]3[C@@H](CCC4=CC(=O)CC[C@@H]43)[C@@H]1CC[C@@H]2O`, the maximum recommended daily dose (mmol/kg-bw/day) (TherapeuticCategory: anabolic) is 0.0121.

`CC(=O)CC(c1ccc([N+](=O)[O-])cc1)c1c(O)c2ccccc2oc1=O` (stereo not drawn): under setting [7], the maximum recommended daily dose (mmol/kg-bw/day) was 0.000566.

`CCN(CC)C(=O)N[C@H]1C=C2c3cccc4[nH]cc(c34)C[C@H]2N(C)C1`: under “TherapeuticCategory: antimigraine, prolactin inhibitor”, the maximum recommended daily dose (mmol/kg-bw/day) was 0.000246.

For `S=P(N1CC1)(N1CC1)N1CC1`, the maximum recommended daily dose (mmol/kg-bw/day) under setting [6] was 0.00211.

For `Cc1oncc1C(=O)Nc1ccc(C(F)(F)F)cc1`, the maximum recommended daily dose (mmol/kg-bw/day) (TherapeuticCategory: antirheuematic, immunosuppressant) was 0.00123.

On to `C[N+]1(C)CCC(OC(=O)CC(O)(c2ccccc2)C2CCCC2)C1` (stereo not drawn), for which the maximum recommended daily dose (mmol/kg-bw/day) (TherapeuticCategory: anticholinergic) was 0.000162.

For `O=C(CCCN1CC=C(n2c(=O)[nH]c3ccccc32)CC1)c1ccc(F)cc1`, under setting [5], the maximum recommended daily dose (mmol/kg-bw/day) is 0.000725.

For `CN(C/C=C/C#CC(C)(C)C)Cc1cccc2ccccc12`, the maximum recommended daily dose (mmol/kg-bw/day) (TherapeuticCategory: topical antifungal) is 0.0926.

For `NC[C@H]1O[C@H](O[C@H]2[C@H](O)[C@@H](O[C@H]3O[C@H](CO)[C@@H](O)[C@H](N)[C@H]3O)[C@H](N)C[C@@H]2N)[C@H](N)[C@@H](O)[C@@H]1O`, under setting [2], the maximum recommended daily dose (mmol/kg-bw/day) is 0.031.

On to `C[C@@]12CCCCC[C@@H](Cc3ccc(O)cc31)[C@@H]2N`, for which the maximum recommended daily dose (mmol/kg-bw/day) under setting [1] is 0.000681.

Take `CN1CCN2c3ncccc3Cc3ccccc3C2C1` (stereo not drawn): the maximum recommended daily dose (mmol/kg-bw/day) under setting [3] is 0.00283.

Consider `CC1(C)[C@H](C(=O)O)N2C(=O)C[C@H]2S1(=O)=O`, for which the maximum recommended daily dose (mmol/kg-bw/day) (TherapeuticCategory: combination to form antibacterial) was 0.286.

Take `OC[C@H]1OC(O)[C@H](O)[C@@H](O)[C@H]1O` (stereo partly drawn): the maximum recommended daily dose (mmol/kg-bw/day) (TherapeuticCategory: diagnostic aid, hepatic function) is 0.555.

In the case of `CCN(CC)CCN1C(=O)CN=C(c2ccccc2F)c2cc(Cl)ccc21`, the maximum recommended daily dose (mmol/kg-bw/day) (TherapeuticCategory: sedative, hypnotic) was 0.00129.

Regarding `CC(=O)[C@]1(O)Cc2c(O)c3c(c(O)c2[C@@H](O[C@H]2C[C@H](N)[C@H](O)[C@H](C)O2)C1)C(=O)c1c(O)cccc1C3=O`, the maximum recommended daily dose (mmol/kg-bw/day) under setting [6] is 0.00132.

Consider `CCCC(=O)O[C@]1(C(=O)COC(=O)CC)[C@@H](C)C[C@H]2[C@@H]3CCC4=CC(=O)C=C[C@]4(C)[C@@]3(F)[C@@H](O)C[C@@]21C`, for which the maximum recommended daily dose (mmol/kg-bw/day) (TherapeuticCategory: glucocorticoid) was 0.000289.

On to `CC1(C)S[C@@H]2[C@H](NC(=O)[C@H](N)c3ccc(O)cc3)C(=O)N2[C@H]1C(=O)O`, for which the maximum recommended daily dose (mmol/kg-bw/day) under setting [2] is 0.0596.

With `CO[C@H]1C[C@H](O[C@H]2[C@H](C)[C@@H](O[C@@H]3O[C@H](C)C[C@H](N(C)C)[C@H]3OC(C)=O)[C@@H](C)C[C@]3(CO3)C(=O)[C@H](C)[C@@H](OC(C)=O)[C@@H](C)[C@@H](C)OC(=O)[C@@H]2C)O[C@@H](C)[C@@H]1OC(C)=O`, the maximum recommended daily dose (mmol/kg-bw/day) under setting [2] is 0.0409.

Turning to `CNC(=O)c1c(I)c(NC(=O)CCCCC(=O)Nc2c(I)c(C(=O)O)c(I)c(C(=O)NC)c2I)c(I)c(C(=O)O)c1I`, the maximum recommended daily dose (mmol/kg-bw/day) under setting [4] is 0.0798.

Regarding `NC(=O)c1ncn([C@@H]2O[C@H](CO)[C@@H](O)[C@H]2O)n1`, the maximum recommended daily dose (mmol/kg-bw/day) (TherapeuticCategory: antiviral) is 0.819.

Turning to `C[C@H](CSC(=O)[C@@H](C)NC(=O)C1CCCCC1)C(=O)N1CCC[C@H]1C(=O)O`, under setting [8], the maximum recommended daily dose (mmol/kg-bw/day) was 0.00251.

For the compound `N=c1ccn2c(n1)O[C@H]1[C@H](O)[C@@H](CO)O[C@H]12`, under setting [6], the maximum recommended daily dose (mmol/kg-bw/day) was 0.0888.

As for `O=C1NCC2(CCN(CCc3ccccc3)CC2)O1`, the maximum recommended daily dose (mmol/kg-bw/day) (TherapeuticCategory: bronchodilator, alpha adrenergic blocker) was 0.0307.

As to `COc1cc(C(=O)NC2CCCNC2)cc(OC)c1OC` (stereo not drawn), the maximum recommended daily dose (mmol/kg-bw/day) (TherapeuticCategory: antiulcerative) is 0.017.

For `CC(=O)O[C@]1(C(C)=O)CC[C@H]2[C@@H]3C=C(Cl)C4=CC(=O)[C@@H]5C[C@@H]5[C@]4(C)[C@H]3CC[C@@]21C`, where the note is “TherapeuticCategory: antiandrogen”, the maximum recommended daily dose (mmol/kg-bw/day) is 0.012.

Consider `NC[C@H]1O[C@H](O[C@H]2[C@H](O)[C@@H](O)[C@H](N)C[C@@H]2N)[C@H](N)[C@@H](O)[C@@H]1O`, for which the maximum recommended daily dose (mmol/kg-bw/day) under setting [2] is 0.31.

In the case of `O=P(O)(O)OC(CO)CO`, the maximum recommended daily dose (mmol/kg-bw/day) (TherapeuticCategory: none) was 0.388.

Regarding `O=C1c2ccccc2C(=O)C1c1ccccc1`, under setting [7], the maximum recommended daily dose (mmol/kg-bw/day) is 0.015.

Consider `O=C1OC(c2ccc(O)cc2)(c2ccc(O)cc2)c2ccccc21`, for which, for the setting “TherapeuticCategory: cathartic”, the maximum recommended daily dose (mmol/kg-bw/day) is 0.00682.

Regarding `COC1=CC(=O)C[C@@H](C)[C@]12Oc1c(Cl)c(OC)cc(OC)c1C2=O`, the maximum recommended daily dose (mmol/kg-bw/day) (TherapeuticCategory: antifungal) was 0.0354.

As for `Cc1cc2c(OCC(CNC(C)(C)C)OC(=O)c3ccccc3)cccc2[nH]1` (stereo not drawn), the maximum recommended daily dose (mmol/kg-bw/day) under setting [8] is 4.39e-05.
